{"source": "paper PMC5707067", "about": "“Farnesyl phenolic enantiomers as natural MTH1 inhibitors from Ganoderma sinense” (Oncotarget, 2017)", "key": {"[1]": {"tested_on": "human ES-2 ovarian carcinoma cells (ES-2)", "test": "CCK8 cytotoxicity assay, ES-2", "assay_type": "cell-based", "details": "Homo sapiens, Ovarian carcinoma cell; CCK8, 48 h, carcinoma cell line", "description": "(§1) The growth inhibitory effects of the isolated farnesyl phenolic compounds (1–8) against carcinoma cell lines [human osteosarcoma cells (U2OS), human colorectal carcinoma cells (SW620), human ES-2 ovarian carcinoma cells (ES-2)] and normal tissue cell lines [human hepatic cells (Lo2), African green monkey kidney vero cells (Vero)] were further investigated using CCK8 assay method (Table 3).\n(§2) Carcinoma cell lines [human osteosarcoma cells (U2OS), human colorectal carcinoma cells (SW620), human ES-2 ovarian carcinoma cells (ES-2)] and normal tissue cell lines [human hepatic cells (Lo2), African green monkey kidney Vero cells (Vero)] The U2OS, SW620, ES-2, Lo2 and Vero were obtained from ATCC (Manassas, VA, USA). The SW620 and Vero cells were cultured in Roswell Park Memorial Institute medium (RPMI), with 10% fetal bovine serum (Hyclone) and 1% penicillin-streptomycin (Sigma). Lo2, U2OS and ES-2 cells were grown in Dulbecco's modified eagle medium (DMEM), with 10% fetal bovine serum (Hyclone) and 1% penicillin-streptomycin (Sigma). All of these cells were cultured at 37°C in a humidified atmosphere with 5% CO2. For CCK8 assay cytotoxicity evaluation of compounds, all cells were separately plated at a density of 1 × 10^4 cells/well in a 96 well plate. Cells were cultivated at 37°C in 5% CO2 atmosphere for 24 h, then medium in the wells was replaced with fresh medium containing compounds which were diluted in 8 dilution steps covering the range from 200 μM to 1.5625 μM. And DMSO was used as negative control. After 48 h incubation, 10 μL of CCK8 solution was added to each well. After 30 min, the optical density (OD) of each well was measured at wavelength of 450 nm on spectrophotometer. Data were corrected for background (no-cell control) and expressed as a percentage of the value for untreated cells. The IC50 values of the isolated compounds were derived from the mean OD values of the triplicate tests versus the drug concentration curves."}, "[2]": {"test": "CCK8 cytotoxicity assay, Lo2", "assay_type": "cell-based, human", "details": "human, Lo2 human hepatic cells (normal tissue cell line), CCK8, 48 h", "description": "as §1, §2"}, "[3]": {"tested_on": "human osteosarcoma cells (U2OS)", "test": "CCK8 cytotoxicity assay, U2OS", "assay_type": "cell-based", "details": "Homo sapiens, U2OS; CCK8, 48 h, carcinoma cell line", "description": "as §1, §2"}, "SW620 cells (53BP1 foci)": {"tested_on": "SW620 cells (53BP1 foci)", "test": "53BP1 foci immunofluorescence", "assay_type": "cell-based, human", "details": "50 μM, 24 h vs control, P<0.01", "procedure": "Meanwhile, MTH1 could prevent the mispairing of bases during replication and transversion mutations. Presumably, its inhibitors could cause DNA damage. P53 binding protein 1 (p53-binding, protein 1, 53BP1) is an important regulatory factor in response to double strand breaks.\nCells which adhered to glass coverslips were treated with DMSO or compounds (50 μM) for 24 h. Then cells were washed with PBS and then fixed with 3% paraformaldehyde in PBS for 20 min […]. Fixed cells were rinsed with PBS and incubated with penetrating agent (0.5% Triton-X-100) in PBS for 5 min. Next, cells were stained with an anti-53BP1 monoclonal antibody (abcam, diluted 1:250). Then the coverslips were rinsed with PBS at least 3 times andincubated with an Alexa Fluor 568 goat anti-rabbit IgG secondary antibody. After PBS rinsing, coverslips were stained with DAPI (sigma). Then the morphology was observed by confocal microscopy (Zeiss, OBSERVER D1/AX10 cam HRC)."}, "MTH1 in SW620 cells": {"molecular_target": "T1, MTH1 in SW620 cells (Homo sapiens, UniProt P36639)", "T1 construct": "endogenous in cells; host or cells: SW620", "test": "Cellular thermal shift assay (CETSA)", "assay_type": "cell-based", "details": "30 μM, 12 hours, 44-54°C, vs DMSO, Western blot", "procedure": "The cellular thermal shift assay (CETSA) was recently developed to further confirm the interaction between the target and the compound in vitro by Western blot assay. CETSA was applied based on the principles that the ligand binding gave rise to the thermal stabilization of target proteins. The thermal stability of MTH1 in SW620 cells was tested at the temperature range of 44-54°C after the pretreatment of compound 1 for 12 hours (Figure 6E and 6F). Correspondingly, the control cells were treated with DMSO. […] Compared with the control group, the thermal stability of MTH1 protein in compound 1 pretreated cells was better under the same temperature condition.\nCETSA was developed as a method to directly detect the binding capacity of compounds with targets at the cellular level, based on the principle of ligand-induced target protein stabilization. […] Subsequently, cells were analysed by Western blot assay.\nThe harvested cells were lysed with liquid nitrogen and the freeze-thaw cycles were repeated twice. […] Proteins was quantified by Bradford reagent (Bio-Rad, USA). The same amount of proteins (20-40 μg) were loaded onto 15% SDS-PAGE gels and transferred to polyvinylidene difluoride membranes (PVDF) (Millipore, USA) and analyzed using the MTH1-antibody (Proteintech) at a concentration of 1: 500. […]"}, "SW620 cells": {"tested_on": "SW620 cells", "test": "EdU cell proliferation assay", "assay_type": "cell-based, human", "details": "50 μM or 150 μM vs control, P<0.001", "procedure": "EdU cell proliferation assays were carried out to detect the effects of compounds on DNA replication. EdU (5-Ethynyl-2- deoxyuridine), a thymidine analog, can penetrate into the replicating DNA molecule. Based on the specific response of EdU and fluorescent dyes, DNA replication activity could be detected.\nSW620 cells were pretreated with 0, 50, 150 μM of compound 1, respectively. Dissociated cells were handled with EdU cell proliferation kit (RiboBio) according to the manuscript by according to the manufacturer's instructions. Then the morphology was observed by fluorescence microscopy (Zeiss, OBSERVER D1/AX10 cam HRC)."}, "[4]": {"tested_on": "human colorectal carcinoma cells (SW620)", "test": "CCK8 cytotoxicity assay, SW620", "assay_type": "cell-based", "details": "Homo sapiens, SW-620; CCK8, 48 h, carcinoma cell line", "description": "as §1, §2"}}}
{"smiles": "CO[C@]1(c2cc(O)cc(O)c2)C=C(CCCC(CO)CC/C=C(\\C)COC(=O)/C=C/c2ccc(O)cc2)C(=O)O1", "note": "(stereo partly drawn) [Compound 1, (5R)-3-{9-[(E)-coumaroyl]-4-hydroxymethyl-8-methyl-7-nonene}-5-(3,5-dihydroxyphenyl)-5-methoxy-2(5H)-furanone]", "values": [{"measurement": "IC50", "setting": "[1]", "value": "55.5 ± 1.08", "unit": "µM"}, {"measurement": "IC50 at 48 h", "setting": "[2]", "value": "150.3 ± 1.09", "unit": "µM"}, {"measurement": "IC50", "setting": "[3]", "value": "111 ± 1.29", "unit": "µM"}, {"measurement": "53BP1 foci formation", "setting": "SW620 cells (53BP1 foci)", "value": "significantly aggregated"}, {"measurement": "thermal stability of MTH1 protein", "setting": "MTH1 in SW620 cells", "value": "better"}, {"measurement": "percentage of EdU+ cells", "setting": "SW620 cells", "value": "significantly deceased"}, {"measurement": "IC50", "setting": "[4]", "value": "45 ± 1.23", "unit": "µM"}]}
